Like-named read-outs stand apart in the source and are kept apart here.
Assays:
Type in all cases: in vivo
[1] = system: Yellow Fever Mosquito (Aedes aegypti, AEDSAE); settings: about 1 day-old larvae, 3 days, room temperature, scored on mortality
Protocol: Example C: Bioassays on Yellow Fever Mosqurro (Aedes aegypti, AEDSAE) (“YFM”)
Certain molecules disclosed in this document were tested against YFM using procedures described in the following paragraph. In the reporting of the results, the “GPA & YFM Rating Table” was used (See Table Section).
Master plates containing 400 μg of a molecule dissolved in 100 μL of dimethyl sulfoxide (DMSO) (equivalent to a 4000 ppm solution) are used. A master plate of assembled molecules contains 15 μL per well. To this plate, 135 μL of a 90:10 water:acetone mixture is added to each well. A robot (Biomek® NXP Laboratory Automation Workstation) is programmed to dispense 15 μL aspirations from the master plate into an empty 96-well shallow plate (“daughter” plate). There are 6 reps (“daughter” plates) created per master. The created daughter plates are then immediately infested with YFM larvae.
The day before plates are to be treated, mosquito eggs are placed in Millipore water containing liver powder to begin hatching (4 g. into 400 mL). After the daughter plates are created using the robot, they are infested with 220 μL of the liver powder/larval mosquito mixture (about 1 day-old larvae). After plates are infested with mosquito larvae, a non-evaporative lid is used to cover the plate to reduce drying. Plates are held at room temperature for 3 days prior to grading. After 3 days, each well is observed and scored based on mortality. The results are indicated in the table entitled “Table ABC: Biological Results” (See Table Section).

[2] = system: Beet Armyworm (Spodoptera exigua, LAPHEG); assay: Bioassay on Beet Armyworm (BAW), 128-well diet tray assay; settings: for mortality at 50 µg/cm2: 168 h, 50 μg/cm^2 on artificial diet, second instar larvae, five to seven days, 25° C., read-out: BAW % Control (or Mortality) rating
How it was run: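 Mortality of second-instar larvae (one to five per well) was scored after five to seven days at 25 °C under 14:10 light-dark and averaged across eight wells. Each well's diet had received 50 μg/cm^2 test molecule from a 90:10 acetone-water solution, allowed to dry before infestation.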

[3] = system: Cabbage Looper (Trichoplusia ni, TRIPNI); assay: Bioassay on Cabbage Looper (CL), 128-well diet tray assay; settings: for mortality at 50 µg/cm2: 168 h, 50 μg/cm^2 on artificial diet, second instar larvae, five to seven days, 25° C., read-out: CL % Control (or Mortality) rating
How it was run: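 Percent mortality, averaged over eight wells, scored after five to seven days at 25° C. under 14:10 light-dark. Each well held 1–5 second-instar larvae on artificial diet treated with 50 μg/cm^2 test molecule applied in 90:10 acetone-water and dried.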

Which “YFM % Control (or Mortality) rating” value [1] does the source give for `C[C@H](CS(=O)(=O)CC(F)(F)F)NC(=O)c1ccc(/C(F)=C/C(c2cc(Cl)cc(Cl)c2)C(F)(F)F)cc1C(F)(F)F` (stereo partly drawn) [F17, 4-((Z)-3-(3,5-dichlorophenyl)-1,4,4,4-tetrafluorobut-1-en-1-yl)-N—((R)-1-((2,2,2-trifluoroethyl)sulfonyl)propan-2-yl)-2-(trifluoromethyl)benzamide] here?
Its value is “A (80-100)”.

What about the mortality at 50 µg/cm2 [2] of the same molecule?
The mortality at 50 µg/cm2 was 50 to 100%.

What about the mortality at 50 µg/cm2 [3] of the same molecule?
Its mortality at 50 µg/cm2 is 50 to 100%.

`CCS(=O)(=O)C[C@@H](C)NC(=O)c1ccc(/C(F)=C/C(c2cc(Br)c(Cl)c(Br)c2)C(F)(F)F)cc1C(F)(F)F` (stereo partly drawn) [F56, 4-((Z)-3-(3,5-Dibromo-4-chlorophenyl)-1,4,4,4-tetrafluorobut-1-en-1-yl)-N—((R)-1-(ethylsulfonyl)propan-2-yl)-2-(trifluoromethyl)benzamide] was tested. Which “YFM % Control (or Mortality) rating” value [1] did it give?
The value was “A (80-100)”.

Which mortality at 50 µg/cm2 [2] does the source give for `C[C@H](CS(=O)(=O)CC(F)(F)F)NC(=O)c1ccc(/C(F)=C/C(c2cc(Cl)cc(C(C)(F)F)c2)C(F)(F)F)cc1C(F)(F)F` (stereo partly drawn) [F120, 4-((Z)-3-(3-Chloro-5-(1,1-difluoroethyl)phenyl)-1,4,4,4-tetrafluorobut-1-en-1-yl)-N—((R)-1-((2,2,2-trifluoroethyl)sulfonyl)propan-2-yl)-2-(trifluoromethyl)benzamide] here?
The mortality at 50 µg/cm2 was 50 to 100%.

What about the mortality at 50 µg/cm2 [3] of the same molecule?
Its mortality at 50 µg/cm2 is 50 to 100%.

Which mortality at 50 µg/cm2 [2] does the source give for `CC(CNC(=O)c1ccc(/C(F)=C/C(c2cc(Cl)c(Cl)c(Cl)c2)C(F)(F)F)cc1C(F)(F)F)S(C)(=O)=O` (stereo not drawn) [F124, (Z)—N-(2-(methylsulfonyl)propyl)-4-(1,4,4,4-tetrafluoro-3-(3,4,5-trichlorophenyl)but-1-en-1-yl)-2-(trifluoromethyl)benzamide] here?
The mortality at 50 µg/cm2 was 50 to 100%.

What about the mortality at 50 µg/cm2 [3] of the same molecule?
Its mortality at 50 µg/cm2 is 50 to 100%.

With `C[C@H](CS(=O)(=O)CC(F)(F)F)NC(=O)c1ccc(/C(F)=C/C(c2cc(F)cc(Cl)c2)C(F)(F)F)cc1C(F)(F)F` (stereo partly drawn) [F126, 4-((Z)-3-(3-Chloro-5-fluorophenyl)-1,4,4,4-tetrafluorobut-1-en-1-yl)-N—((R)-1-((2,2,2-trifluoroethyl)sulfonyl)propan-2-yl)-2-(trifluoromethyl)benzamide] as the molecule, how does the mortality at 50 µg/cm2 [2] read?
Its mortality at 50 µg/cm2 is 50 to 100%.

What about the mortality at 50 µg/cm2 [3] of the same molecule?
The mortality at 50 µg/cm2 was 50 to 100%.

Which mortality at 50 µg/cm2 [2] does the source give for `C[C@H](CS(=O)(=O)CC(F)(F)F)NC(=O)c1ccc(/C(F)=C/C(c2ccc(Cl)c(OC(F)(F)F)c2)C(F)(F)F)cc1C(F)(F)F` (stereo partly drawn) [F127, 4-((Z)-3-(4-Chloro-3-(trifluoromethoxy)phenyl)-1,4,4,4-tetrafluorobut-1-en-1-yl)-N—((R)-1-((2,2,2-trifluoroethyl)sulfonyl)propan-2-yl)-2-(trifluoromethyl)benzamide] here?
The mortality at 50 µg/cm2 was 50 to 100%.

What about the mortality at 50 µg/cm2 [3] of the same molecule?
The mortality at 50 µg/cm2 was 50 to 100%.

With `C[C@H](CSCCC#N)NC(=O)c1ccc(/C(F)=C/C(c2cc(Cl)c(Cl)c(Cl)c2)C(F)(F)F)cc1C(F)(F)F` (stereo partly drawn) [F128, N—((R)-1-((2-Cyanoethyl)thio)propan-2-yl)-4-((Z)-1,4,4,4-tetrafluoro-3-(3,4,5-trichlorophenyl)but-1-en-1-yl)-2-(trifluoromethyl)benzamide] as the molecule, how does the mortality at 50 µg/cm2 [2] read?
The mortality at 50 µg/cm2 was 50 to 100%.

What about the mortality at 50 µg/cm2 [3] of the same molecule?
The mortality at 50 µg/cm2 was 50 to 100%.

Which mortality at 50 µg/cm2 [2] does the source give for `C[C@H](CS(=O)(=O)CC(F)F)NC(=O)c1ccc(/C(F)=C/C(c2cc(Cl)c(Cl)c(Cl)c2)C(F)(F)F)cc1C(F)(F)F` (stereo partly drawn) [F129, N—((R)-1-((2,2-difluoroethyl)sulfonyl)propan-2-yl)-4-((Z)-1,4,4,4-tetrafluoro-3-(3,4,5-trichlorophenyl)but-1-en-1-yl)-2-(trifluoromethyl)benzamide] here?
Its mortality at 50 µg/cm2 is 50 to 100%.

And the mortality at 50 µg/cm2 [3]?
Its mortality at 50 µg/cm2 is 50 to 100%.

For `Cc1c(C(/C=C(\F)c2ccc(C(=O)N[C@H](C)CS(=O)(=O)CC(F)(F)F)c(C(F)(F)F)c2)C(F)(F)F)ccc(Cl)c1Cl` (stereo partly drawn) [F132, 4-((Z)-3-(3,4-Dichloro-2-methylphenyl)-1,4,4,4-tetrafluorobut-1-en-1-yl)-N—((R)-1-((2,2,2-trifluoroethyl)sulfonyl)propan-2-yl)-2-(trifluoromethyl)benzamide], which mortality at 50 µg/cm2 [2] is on record?
The mortality at 50 µg/cm2 was 50 to 100%.

And the mortality at 50 µg/cm2 [3]?
Its mortality at 50 µg/cm2 is 50 to 100%.

What does the source list for `C[C@H](CS(=O)(=O)CC(F)(F)F)NC(=O)c1ccc(/C(F)=C/C(c2cc(F)c(F)c(F)c2)C(F)(F)F)cc1C(F)(F)F` (stereo partly drawn) [F133, 4-((Z)-1,4,4,4-Tetrafluoro-3-(3,4,5-trifluorophenyl)but-1-en-1-yl)-N—((R)-1-((2,2,2-trifluoroethyl)sulfonyl)propan-2-yl)-2-(trifluoromethyl)benzamide]?
mortality at 50 µg/cm2 [2]: 50 to 100%; mortality at 50 µg/cm2 [3]: 50 to 100%

Which mortality at 50 µg/cm2 [2] does the source give for `C[C@H](CS(=O)(=O)CC(F)(F)F)NC(=O)c1ccc(/C(F)=C/[C@@H](c2cc(Cl)c(Cl)c(Cl)c2)C(F)(F)F)cc1C(F)(F)F` [F136, 4-((S,Z)-1,4,4,4-tetrafluoro-3-(3,4,5-trichlorophenyl)but-1-en-1-yl)-N—((R)-1-((2,2,2-trifluoroethyl)sulfonyl)propan-2-yl)-2-(trifluoromethyl)benzamide] here?
Its mortality at 50 µg/cm2 is 50 to 100%.

And the mortality at 50 µg/cm2 [3]?
The mortality at 50 µg/cm2 was 50 to 100%.

`C[C@H](CSCCC(F)(F)F)NC(=O)c1ccc(/C(F)=C/C(c2cc(Cl)c(Cl)c(Cl)c2)C(F)(F)F)cc1C(F)(F)F` (stereo partly drawn) [F137, 4-((Z)-1,4,4,4-Tetrafluoro-3-(3,4,5-trichlorophenyl)but-1-en-1-yl)-2-(trifluoromethyl)-N—((R)-1-((3,3,3-trifluoropropyl)thio)propan-2-yl)benzamide] was tested. Which mortality at 50 µg/cm2 [2] did it give?
The mortality at 50 µg/cm2 was 50 to 100%.

And the mortality at 50 µg/cm2 [3]?
The mortality at 50 µg/cm2 was 50 to 100%.

How did the mortality at 50 µg/cm2 [2] turn out when `O=C(NCC[S+]([O-])CCF)c1ccc(/C(F)=C/C(c2cc(Cl)c(Cl)c(Cl)c2)C(F)(F)F)cc1C(F)(F)F` (stereo not drawn) [F138, (Z)—N-(2-((2-Fluoroethyl)sulfinyl)ethyl)-4-(1,4,4,4-tetrafluoro-3-(3,4,5-trichlorophenyl)but-1-en-1-yl)-2-(trifluoromethyl)benzamide] was run?
Its mortality at 50 µg/cm2 is 50 to 100%.

And the mortality at 50 µg/cm2 [3]?
The mortality at 50 µg/cm2 was 50 to 100%.

Which mortality at 0.05 µg/cm2 ([2]; 0.05 μg/cm^2, read-out: BAW Percent control (or mortality)) does the source give for `C[C@H](CS(=O)(=O)CC(F)(F)F)NC(=O)c1ccc(/C(F)=C/C(c2cc(Cl)c(Cl)c(Cl)c2)C(C)(F)F)cc1` (stereo partly drawn) [FC1, 4-((Z)-1,4,4-Trifluoro-3-(3,4,5-trichlorophenyl)pent-1-en-1-yl)-N—((R)-1-((2,2,2-trifluoroethyl)sulfonyl)propan-2-yl)benzamide] here?
Its mortality at 0.05 µg/cm2 is 0%.

What about the mortality at 0.5 µg/cm2 ([2]; 0.5 μg/cm^2, read-out: BAW Percent control (or mortality)) of the same molecule?
The mortality at 0.5 µg/cm2 was 20%.

And the mortality at 5 µg/cm2 ([2]; 5 μg/cm^2, read-out: BAW Percent control (or mortality))?
The mortality at 5 µg/cm2 was 100%.

And the mortality at 0.05 µg/cm2 ([3]; 0.05 μg/cm^2, read-out: CL Percent control (or mortality))?
Its mortality at 0.05 µg/cm2 is 0%.

And the mortality at 0.5 µg/cm2 ([3]; 0.5 μg/cm^2, read-out: CL Percent control (or mortality))?
Its mortality at 0.5 µg/cm2 is 81%.

And the mortality at 5 µg/cm2 ([3]; 5 μg/cm^2, read-out: CL Percent control (or mortality))?
Its mortality at 5 µg/cm2 is 100%.

Which results are given for `C[C@H](CSCC(F)(F)F)NC(=O)c1ccc(/C(F)=C/C(c2cc(Cl)c(Cl)c(Cl)c2)C(C)(F)F)cc1` (stereo partly drawn) [FC2, 4-((Z)-1,4,4-Trifluoro-3-(3,4,5-trichlorophenyl)pent-1-en-1-yl)-N—((R)-1-((2,2,2-trifluoroethyl)thio)propan-2-yl)benzamide]?
mortality at 0.05 µg/cm2 ([2]; 0.05 μg/cm^2, Table CD2 comparative data, read-out: Percent control (or mortality) BAW): 0%; mortality at 0.5 µg/cm2 ([2]; 0.5 μg/cm^2, Table CD2 comparative data, read-out: Percent control (or mortality) BAW): 20%; mortality at 5 µg/cm2 ([2]; 5 μg/cm^2, Table CD2 comparative data, read-out: Percent control (or mortality) BAW): 100%; mortality at 0.05 µg/cm2 ([3]; 0.05 μg/cm^2, Table CD2 comparative data, read-out: Percent control (or mortality) CL): 0%; mortality at 0.5 µg/cm2 ([3]; 0.5 μg/cm^2, Table CD2 comparative data, read-out: Percent control (or mortality) CL): 0%; mortality at 5 µg/cm2 ([3]; 5 μg/cm^2, Table CD2 comparative data, read-out: Percent control (or mortality) CL): 100%

For `C[C@H](CS(=O)(=O)CC(F)(F)F)NC(=O)c1ccc(/C(F)=C/C(c2ccc(Cl)c(F)c2)C(F)(F)F)cc1C(F)(F)F` (stereo partly drawn) [PF4, 4-((Z)-3-(4-Chloro-3-fluorophenyl)-1,4,4,4-tetrafluorobut-1-en-1-yl)-N—((R)-1-((2,2,2-trifluoroethyl)sulfonyl)propan-2-yl)-2-(trifluoromethyl)benzamide], which mortality at 50 µg/cm2 [2] is on record?
The mortality at 50 µg/cm2 was 50 to 100%.

And the mortality at 50 µg/cm2 [3]?
Its mortality at 50 µg/cm2 is 50 to 100%.

`Cc1cc(C(/C=C(\F)c2ccc(C(=O)N[C@H](C)CS(=O)(=O)CC(F)(F)F)c(C(F)(F)F)c2)C(F)(F)F)ccc1Cl` (stereo partly drawn) [PF8, 4-((Z)-3-(4-Chloro-3-methylphenyl)-1,4,4,4-tetrafluorobut-1-en-1-yl)-N—((R)-1-((2,2,2-trifluoroethyl)sulfonyl)propan-2-yl)-2-(trifluoromethyl)benzamide] was tested. Which mortality at 50 µg/cm2 [2] did it give?
The mortality at 50 µg/cm2 was 50 to 100%.

And the mortality at 50 µg/cm2 [3]?
The mortality at 50 µg/cm2 was 50 to 100%.

— US10681908B2, “Molecules having pesticidal utility, and intermediates, compositions, and processes, related thereto” (Dow AgroSciences LLC, priority 2016, dated 2020)
